Assay results from article PMC6222861, “Be Aware of Aggregators in the Search for Potential Human ecto-5′-Nucleotidase Inhibitors” (Molecules : A Journal of Synthetic Chemistry and Natural …, 2018).
Converted amounts (≈) assume the structure as drawn.

How the values were obtained:
[1] = Turbidimetric solubility assay; format: physicochemical; conditions: HEPES buffer with MgCl2 and CaCl2, aqueous buffer, kinetic from dmso stock; HEPES buffer 10 mM pH 7.4, MgCl2 2 mM, CaCl2 1 mM, 1.0% (v/v) DMSO; turbidity at 400 nm; read-out: Estimated Solubility
Procedure: The final DMSO concentration in each sample was 1.0% (v/v). Increased turbidity (light scattering) was measured at 400 nm, since all compounds have absorbance peaks below this wavelength. Each sample was prepared and measured in triplicate. All measurements were done using a Hitachi U-2010 spectrophotometer.

[2] = Turbidity at 400 nm as a function of time; format: physicochemical; conditions: A 500 µM, B 100 µM, D 250 µM; HEPES buffer pH 7.4, 1.0% (v/v) DMSO; precipitates seen after 60 min
Procedure: Additionally, turbidity at 400 nm as a function of time was followed for compounds A–D (Figure 6a). The concentration of each compound in these assays was near to the maximum that could be obtained, so that DMSO concentration was kept at 1.0% (v/v) in the assay buffer. […] In fact, after 60 min, precipitates at the bottom of the cuvettes were clearly observed by visual inspection (data not shown).
Figure 6 (a) Turbidity at 400 nm as a function of time measured for compounds A, B, C and D (at 500 µM, 100 µM, 80 µM and 250 µM, respectively). Each solution was prepared in HEPES buffer (10 mM), containing MgCl2 (2 mM) and CaCl2 (1 mM), pH = 7.4. Final concentration of DMSO in each sample was 1.0% (v/v); (b) Mean diameter (D) values as a function of time for compound C (80 µM) as determined by DLS. A solution of C was prepared in HEPES buffer (10 mM), containing MgCl2 (2 mM) and CaCl2 (1 mM), pH = 7.4. Final concentration of DMSO in each sample was 1.0% (v/v).
Turbidimetric assays were done using a Hitachi U-2010 spectrophotometer (Hitachi, Chiyoda, Tokyo, Japan). DLS analysis was done using a Zeta Plus Zeta-Potential Analyzer (Brookshaven Instruments Corporation, Hotsville, NY, USA) equipped with a 570 nm laser for dynamic light scattering at 90°. For enzymatic assays, absorbance measurements were done using a FlexStation 3 Multi-Mode Microplate Reader (Molecular Devices, LLC, San Jose, CA, USA).

human ecto-5′-NT [3] = target: T1, human ecto-5′-NT (Homo sapiens, UniProt P21589); assay: Enzyme inhibition assay (without Triton X-100), malachite green method; format: biochemical; conditions: human ecto-5′-NT 3.6 nM; for IC50: AMP 500 µM, without Triton X-100, HEPES pH 7.4; for Hill slope: concentration-inhibition curve, without Triton X-100
T1 construct: purchased OriGene Technologies, Inc (Rockville, MD, USA)
T1 sequence (P21589 27-574): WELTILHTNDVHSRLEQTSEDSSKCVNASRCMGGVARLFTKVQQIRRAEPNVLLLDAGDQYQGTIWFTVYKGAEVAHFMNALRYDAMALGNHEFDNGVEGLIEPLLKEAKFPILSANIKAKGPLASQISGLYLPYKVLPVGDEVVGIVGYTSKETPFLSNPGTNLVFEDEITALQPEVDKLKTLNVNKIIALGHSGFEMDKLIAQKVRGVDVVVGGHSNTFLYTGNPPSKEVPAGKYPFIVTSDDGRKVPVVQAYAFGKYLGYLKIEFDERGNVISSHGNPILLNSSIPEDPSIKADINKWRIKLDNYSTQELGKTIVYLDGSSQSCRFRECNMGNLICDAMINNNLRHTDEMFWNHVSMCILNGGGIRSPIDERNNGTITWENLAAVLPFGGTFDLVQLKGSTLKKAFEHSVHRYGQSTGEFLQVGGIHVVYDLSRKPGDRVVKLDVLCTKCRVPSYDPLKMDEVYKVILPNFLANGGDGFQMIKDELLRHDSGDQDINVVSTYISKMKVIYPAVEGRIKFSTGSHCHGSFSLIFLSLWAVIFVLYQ
Procedure: (§1) Enzyme inhibition assays (without Triton X-100). Following procedures described in the literature, with some modifications, all assays were carried out in a reaction mixture containing HEPES buffer (10 mM; pH = 7.4), MgCl2 (2 mM), CaCl2 (1 mM), human ecto-5′-NT (3.6 nM), AMP (500 µM) as substrate and variable concentration of each tested compound (from 0 to 500 µM for A and from 0 to 100 µM for B, C and D). Stock solutions of each compound were prepared in DMSO. The final concentration of DMSO in all samples/assays/experiments was 1.0% (v/v). Results were controlled for the effect of DMSO on enzymatic activity. After incubation for 10 min at 37.0 ± 0.2 °C, the reactions were stopped by heating the system for 5 min at 99.0 ± 0.2 °C. Inorganic phosphate concentrations were quantified spectrophotometrically (at λ = 630 nm), using the malachite green method, as described in the literature. Each experiment was done in triplicate. A four-parameter logistic non-linear regression model was used to fit the experimental data, using GraphPad Prism 7.0 (GraphPad, San Diego, CA, USA). From the corresponding fitted curves, we obtained the IC50 values, except when the minimum plateau value from the dose-response curve was far from zero. For such curves, IC50 ranges were estimated based on the inhibition (%) achieved at the maximum tested concentration.

human ecto-5′-NT [4] = target: T1, human ecto-5′-NT; assay: Enzyme concentration sensitivity evaluation: enzyme inhibition assay at 36 nM enzyme; format: biochemical; conditions: human ecto-5′-NT 36 nM (10-fold increase), AMP 500 µM
Procedure: as §1
(ii) Enzyme concentration sensitivity evaluation: For each compound (A, B, C and D), enzyme inhibition assays were done, similarly as described above, but using human ecto-5′-NT at 36 nM (increased by 10-fold).

human ecto-5′-NT [5] = target: T1, human ecto-5′-NT; assay: Non-ionic detergent-sensitivity evaluation: enzyme inhibition assay with 0.01% (v/v) Triton X-100; format: biochemical; conditions: human ecto-5′-NT 3.6 nM, AMP 500 µM, read-out: IC50 in the presence of 0.01% (v/v) Triton X-100
Procedure: as §1
(i) Non-ionic detergent-sensitivity evaluation: For each compound (A, B, C and D), enzyme inhibition assays were done, similarly as described above, using however Triton X-100 (a non-ionic detergent) at a final concentration of 0.01% (v/v) in the reaction mixture.

[6] = Dynamic light scattering (DLS), aggregation kinetics; format: physicochemical; conditions: 80 µM, HEPES buffer pH 7.4, 1.0% (v/v) DMSO
Procedure: (iv) Dynamic light scattering (DLS): Particle size (mean zeta-average diameter D) for compound C was determined using a Zeta Plus Zeta-Potential Analyzer (Brookshaven Instruments Corporation, Hotsville, NY, USA) equipped with a 570 nm laser for dynamic light scattering at 90° [63]. Solutions of Compound C (80 µM) were prepared in HEPES buffer (10 mM), pH = 7.4. The final concentration of DMSO in each sample was 1.0% (v/v).

SMILES	solubility [1]	Turbidity at 400 nm as a function of time [2]	IC50 (human ecto-5′-NT [3])	IC50 (human ecto-5′-NT [4])	IC50 (human ecto-5′-NT [5])	Hill slope (human ecto-5′-NT [3])	Aggregate particle size (mean diameter) as a function of time by DLS [6]
CS(=O)(=O)c1ccc2nc(NC(=O)c3cc(-c4ccccc4O)[nH]n3)sc2c1 [Compound D, 5-(2-hydroxyphenyl)-N-(6-methanesulfonyl-1,3-benzothiazol-2-yl)-1H-pyrazole-3-carboxamide]	< 0.5 µM	a decrease in turbidity is observed as a function of time	2.2 ± 1.2 µM	> 36 µM	> 36 µM		
O=C(COC(=O)c1n[nH]c2ccccc12)Nc1c(F)cccc1F [Compound A, [(2,6-difluorophenyl)carbamoyl]methyl 1H-indazole-3-carboxylate]	79.1 µM (≈ 26.2 µg/mL)	a decrease in turbidity is observed as a function of time	82.9 ± 1.1 µM		> 500 µM	−2.75	
O=C(Nc1nc2ccc(F)cc2s1)c1cc(-c2ccccc2O)n[nH]1 [B, N-(6-fluoro-1,3-benzothiazol-2-yl)-3-(2-hydroxyphenyl)-1H-pyrazole-5-carboxamide]	8.8 µM (≈ 3.12 µg/mL)	a decrease in turbidity is observed as a function of time	1.9 ± 1 µM	> 36 µM	2.3 ± 1.2 µM	−2.90	
CSc1nnc(NC(=O)c2cc(-c3cc(C)cc(C)c3O)n[nH]2)s1 [Compound C, 3-(2-hydroxy-3,5-dimethylphenyl)-N-[5-(methylsulfanyl)-1,3,4-thiadiazol-2-yl]-1H-pyrazole-5-carboxamide]	11.7 µM (≈ 4.23 µg/mL)		16.3 ± 1.1 µM		> 100 µM	−3.19	aggregate particle size slowly increased with time
Nc1ncnc2c1ncn2[C@@H]1O[C@H](COP(=O)(O)OP(=O)(O)O)[C@@H](O)[C@H]1O [ADP, adenosine diphosphate, reference compound]			29.7 ± 1.2 µM	27.2 ± 1.1 µM	31.7 ± 1.2 µM		
